From ChEMBL document CHEMBL1949564, “Inhibitory activity of eudesmane sesquiterpenes from Alpinia oxyphylla on production of nitric oxide” (Bioorg Med Chem Lett, 2012)
≈ marks a conversion by molar mass, not a printed value. Residues, ends and D or L forms follow the SMILES beside them. *: point of attachment. Cbz = O=C(OCc1ccccc1)*

Experiments:
[1] = test system: RAW264.7; assay: Antiinflammatory activity in mouse RAW264.7 cells assessed as inhibition of LPS-induced NO production after 5 mins by Greiss method; type: functional, cell-based; conditions: RAW264.7, 5 min
[2] = test system: RAW264.7; assay: Antiinflammatory activity in mouse RAW264.7 cells assessed as inhibition of IFNgamma-induced NO production after 5 mins by Greiss method; type: functional, cell-based; conditions: RAW264.7, 5 min

Compound | IC50 [1] [µg/mL] | IC50 [2] [µg/mL]
C=C1[C@@H](O)CC[C@]2(C)CC[C@](O)(C(=C)C)C[C@@H]12 (relative stereo) | 13.5 (≈ 57.2 µM) | 13.5 (≈ 57.2 µM)
C=C(C)[C@@H]1CC[C@@]2(C)[C@H](O)CC[C@](C)(O)[C@@H]2C1 (racemic) | 13.5 (≈ 56.8 µM) | 13.5 (≈ 56.8 µM)
CC1=C2C=C(C(C)(O)CO)CC[C@]2(C)CCC1=O (stereo partly drawn) [OXYPHYLLANENE F] | 13.9 (≈ 55.7 µM) | 13.9 (≈ 55.7 µM)
C=C(C)[C@@]1(O)CC[C@]2(C)CC(=O)C=C(C)[C@H]2C1 [TEUCRENONE] | 11.4 (≈ 48.5 µM) | 11.4 (≈ 48.5 µM)
CC(=O)[C@]12CC[C@@]3(C)CCC(=O)C(C)=C3[C@H]1O2 [OXYPHYLLANENE C] | 11 (≈ 47 µM) | 11 (≈ 47 µM)
CC(C)C[C@@H](C=O)NC(=O)[C@H](CC(C)C)NC(=O)[C@H](CC(C)C)NC(=O)OCc1ccccc1 [MG-132] (Cbz-Leu-Leu-Leu-aldehyde) | 0.17 (≈ 0.357 µM) | 0.17 (≈ 0.357 µM)
C=C(C)[C@]1(O)CC[C@@]2(C)CCC(=O)[C@@]3(C)O[C@@]23C1 [OXYPHYLLANENE D] | 9.85 (≈ 39.3 µM) | 9.85 (≈ 39.3 µM)
C[C@@]12CCC[C@](C)(O)C1=CC(=O)CC2 [TEUHETENONE A] | 12.9 (≈ 66.6 µM) | 12.9 (≈ 66.6 µM)
C=C(C)[C@@H]1CC[C@@]2(C)CCC(=O)C(C)=C2[C@@H]1O | 12.5 (≈ 53.4 µM) | 12.5 (≈ 53.4 µM)
C=C(C)[C@]1(O)CC[C@@]2(C)CCC(=O)C(C)=C2C1 | 11.4 (≈ 48.6 µM) | 11.4 (≈ 48.6 µM)
C=C(C)[C@]1(O)CC[C@]2(C)CC(=O)C=C(C)[C@H]2C1 | 11.6 (≈ 49.6 µM) | 11.6 (≈ 49.6 µM)
CC1=C2C[C@H](C(C)(O)CO)CC[C@@]2(C)CCC1=O (stereo partly drawn) | 13.3 (≈ 52.6 µM) | 13.3 (≈ 52.6 µM)
C=C(C)[C@@H]1CC[C@]2(C)C(=C(C)C(=O)C[C@H]2O)C1 [LIGUCYPERONOL] | 12.1 (≈ 51.8 µM) | 12.1 (≈ 51.8 µM)
C[C@@]12CCC(=O)C=C1[C@@](C)(O)[C@H](O)CC2 [OXYPHYLLENONE A] | 12 (≈ 57 µM) | 12 (≈ 57 µM)
